Like-named read-outs stand apart in the source and are kept apart here.
Experiments:
[1] = tested on: Ba/F3_CSF-1R (stably expressing human CSF-1R kinase); assay: Cell proliferation assay, Ba/F3_CSF-1R; format: cell-based
CSF-1R = CSF-1R (Homo sapiens (Human), UniProt P07333); assay: Biochemical HTRF kinase assay, CSF-1R; conditions: Table 2; recombinant human CSF-1R;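 also: enzyme incubated with inhibitor plus a substrate and ATP mix for one hour at room temperature before HTRF detection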
EOC2 cell = assay: Cell proliferation assay, EOC2; format: cell-based, mouse
[2] = BaF3, 72 h, Ba/F3_CSF-1R cells, 72 hours treatment, read-out: CSF-1R BaF3 EC50
[3] = Mus musculus, 72 h, EOC2 cells, 72 hours treatment, read-out: ECO2 EC50
[4] = Ba/F3_CSF-1R cells, 72 hours treatment, read-out: CSF-1R BaF3 EC50
[5] = BaF3, 72 h, read-out: CSF-1R BaF3 EC50 (nM)

Sequence of CSF-1R (P07333 20-972): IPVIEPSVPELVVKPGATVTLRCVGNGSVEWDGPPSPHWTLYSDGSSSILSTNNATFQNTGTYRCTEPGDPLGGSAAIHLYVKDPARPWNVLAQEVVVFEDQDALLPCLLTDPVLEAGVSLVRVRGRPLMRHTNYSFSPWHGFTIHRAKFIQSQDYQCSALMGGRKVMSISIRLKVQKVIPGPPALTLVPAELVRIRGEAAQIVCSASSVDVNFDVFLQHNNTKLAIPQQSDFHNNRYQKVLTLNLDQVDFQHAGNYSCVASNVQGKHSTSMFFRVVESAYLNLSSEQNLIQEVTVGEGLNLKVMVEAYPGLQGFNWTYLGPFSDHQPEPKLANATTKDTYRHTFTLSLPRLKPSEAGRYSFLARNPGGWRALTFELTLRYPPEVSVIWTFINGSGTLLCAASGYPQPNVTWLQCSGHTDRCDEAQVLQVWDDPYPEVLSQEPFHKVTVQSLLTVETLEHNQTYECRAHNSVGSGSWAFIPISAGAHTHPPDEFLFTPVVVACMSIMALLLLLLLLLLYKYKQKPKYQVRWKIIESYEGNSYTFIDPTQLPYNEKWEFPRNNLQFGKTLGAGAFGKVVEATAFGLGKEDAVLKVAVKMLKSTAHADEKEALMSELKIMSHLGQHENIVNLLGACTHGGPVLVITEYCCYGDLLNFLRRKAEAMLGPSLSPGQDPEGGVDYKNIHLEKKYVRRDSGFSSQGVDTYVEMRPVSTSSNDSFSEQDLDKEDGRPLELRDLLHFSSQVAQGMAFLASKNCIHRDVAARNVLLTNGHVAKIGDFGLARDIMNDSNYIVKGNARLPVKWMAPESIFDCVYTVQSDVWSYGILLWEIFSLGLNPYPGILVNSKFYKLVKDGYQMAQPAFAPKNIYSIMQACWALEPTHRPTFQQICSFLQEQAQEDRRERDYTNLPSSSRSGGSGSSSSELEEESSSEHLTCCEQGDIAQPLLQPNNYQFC

| Compound | EC50 [1, 2] | IC50 (CSF-1R) | EC50 (EOC2 cell; [3]) | EC50 [1, 4] | EC50 [1, 5] | EC50 (EOC2 cell; Mus musculus, 72 h, read-out: ECO2 EC50 (nM)) | EC50 (EOC2 cell; EOC2 cells, 72 hours treatment, read-out: ECO2 EC50) |
| --- | --- | --- | --- | --- | --- | --- | --- |
| COc1ccc2c(Cc3ccc(OCc4cc(C)nn4C)c(OC)c3)ccnc2c1 [Example 23] | 323 nM | 0.008 µM | – | – | – | – | – |
| COc1ccc(COc2ncc(Cc3ccnc4cnccc34)cc2OC)nc1 [Example 19, 4-((5-methoxy-6-((5-methoxypyridin-2-yl)methoxy)pyridin-3-yl)methyl)-1,7-naphthyridine] | > 1000 nM | 0.0476 µM | – | – | – | – | – |
| COc1cnc2c(Cc3cnc(OCc4cc(C(C)(C)OC)n(C)n4)c(OC)c3)ccnc2c1 [Example 113] | 348 nM | 0.0123 µM | 143 nM | – | – | – | – |
| COc1cnc2c(Cc3cnc(OCc4cc5n(n4)CC4(CC4)C5)c(OC)c3)ccnc2c1 [Example 108] | 37.6 nM | 0.0019 µM | 23.7 nM | – | – | – | – |
| COc1ccc(COc2ncc(Cc3ccnc4cc(-n5cc(C)cn5)cnc34)cc2OC)nc1 [Example 142] | 7.3 nM | 0.0138 µM | 4.8 nM | – | – | – | – |
| COc1ccc(COc2ncc(Cc3ccnc4cc(-c5cnn(C)c5)cnc34)cc2OC)nc1 [Example 130] | 2 nM | 0.0016 µM | 1.5 nM | – | – | – | – |
| COc1cnc2c(Cc3cnc(OCc4cnc(C)s4)c(OC)c3)ccnc2c1 [Example 42] | 510 nM | 0.0147 µM | 408 nM | – | – | – | – |
| COc1cnc2c(Cc3cnc(OCc4cc(C)n(C5CN(C)C5)n4)c(OC)c3)ccnc2c1 [Example 91] | 753 nM | 0.0406 µM | 388 nM | – | – | – | – |
| COc1cnc2c(Cc3cnc(OCc4cnc5c(c4)CC[C@H]5OC)c(OC)c3)ccnc2c1 (stereo in doubt) [Example 104] | – | 0.0024 µM | 41 nM | 53.2 nM | – | – | – |
| COc1ccc(COc2ccc(Cc3ccnc4cc(OC)cnc34)cc2OC)cc1 [Example 4] | 44.6 nM | 0.0087 µM | 22.6 nM | – | – | – | – |
| COc1cnc2c(Cc3cnc(OCc4cnc(OC)cn4)c(OC)c3)ccnc2c1 [Example 44] | 457 nM | 0.0086 µM | 171 nM | – | – | – | – |
| COc1cnc2c(Cc3cnc(OCc4cn5c(n4)CN(C)CC5)c(OC)c3)ccnc2c1 [Example 94] | > 1000 nM | 0.014 µM | > 1000 nM | – | – | – | – |
| COc1ccc2c(Cc3ccc(OCc4ccc5ncnn5c4)c(OC)c3)ccnc2c1 [Example 21] | 509 nM | 0.0126 µM | 492 nM | – | – | – | – |
| COc1cnc2c(Cc3cnc(OCc4ccc(C5CC5)cn4)c(OC(F)F)c3)ccnc2c1 [Example 69] | > 1000 nM | 0.203 µM | > 1000 nM | – | – | – | – |
| COc1ccc2c(Cc3ccc(OCc4cc(C)on4)c(OC)c3)ccnc2c1 [Example 36] | 637 nM | 0.0398 µM | 486 nM | – | – | – | – |
| COc1ccc(COc2ncc(Cc3ccnc4cc(C5CC5)cnc34)cc2OC)nc1 [Example 137] | 46.7 nM | – | 65 nM | – | – | – | – |
| COc1ccc(COc2ncc(Cc3ccnc4cc(C)cnc34)cc2OC)nc1 [Example 63] | 236 nM | 0.0167 µM | 688 nM | – | – | – | – |
| COc1ccc(COc2ccc(Cc3ccnc4ccncc34)cc2OC)cc1 [Example 17] | 185 nM | 0.0057 µM | 180 nM | – | – | – | – |
| COc1ccc(COc2ncc(Cc3ccnc4cc(-c5cccnc5)cnc34)cc2OC)nc1 [Example 140, 8-((5-methoxy-6-((5-methoxypyridin-2-yl)methoxy)pyridin-3-yl)methyl)-3-(pyridin-3-yl)-1,5-naphthyridine] | – | 0.0094 µM | 10.6 nM | – | 9.8 nM | – | – |
| COc1cnc2c(Cc3ccc4nc(N5CCC(OC)CC5)cnc4c3)ccnc2c1 [Example 153, 3-methoxy-8-[[2-(4-methoxy-1-piperidyl)quinoxalin-6-yl]methyl]-1,5-naphthyridine] | > 1000 nM | – | > 1000 nM | – | – | – | – |
| COc1ccc(COc2ncc(Cc3ccnc4cc(Cl)cnc34)cc2OC)nc1 [Example 62, 3-chloro-8-((5-methoxy-6-((5-methoxypyridin-2-yl)methoxy)pyridin-3-yl)methyl)-1,5-naphthyridine] | – | – | – | – | 177 nM | 496 nM | – |
| COc1ccc(COc2ncc(Cc3ccnc4cc(-n5ccnc5C)cnc34)cc2OC)nc1 [Example 143] | 45.9 nM | 0.0157 µM | 57.5 nM | – | – | – | – |
| COc1ccc(COc2ncc(Cc3ccnc4cc(OC)cnc34)cc2OC)cc1 [Example 38] | 210 nM | 0.0021 µM | 40.8 nM | – | – | – | – |
| COc1cnc2c(Cc3cnc(OCc4cc5n(n4)CCOC5(C)C)c(OC)c3)ccnc2c1 [Example 99] | 59.1 nM | 0.0056 µM | 51.7 nM | – | – | – | – |
| COc1cnc2c(Cc3cnc(OCc4ccc(OC)nc4)c(OC)c3)ccnc2c1 [Example 39] | 46.5 nM | 0.001 µM | 32.1 nM | – | – | – | – |
| COc1cnc2c(Cc3ccn4nc(C5CCOCC5)cc4c3)ccnc2c1 [Example 158, 3-methoxy-8-((2-(tetrahydro-2H-pyran-4-yl)pyrazolo[1,5-a]pyridin-5-yl)methyl)-1,5-naphthyridine] | > 1000 nM | > 1 µM | > 1000 nM | – | – | – | – |
| COc1cnc2c(Cc3cnc(OCc4cnn(C)c4)c(OC)c3)ccnc2c1 [Example 37] | > 1000 nM | – | > 1000 nM | – | – | – | – |

| Compound | EC50 [1, 2] | IC50 (CSF-1R) | EC50 (EOC2 cell; [3]) | EC50 [1, 4] | EC50 [1, 5] | EC50 (EOC2 cell; Mus musculus, 72 h, read-out: ECO2 EC50 (nM)) | EC50 (EOC2 cell; EOC2 cells, 72 hours treatment, read-out: ECO2 EC50) |
| --- | --- | --- | --- | --- | --- | --- | --- |
| COc1cnc2c(Cc3cnc(OCc4cccc(=O)n4C)c(OC)c3)ccnc2c1 [Example 125] | > 1000 nM | 0.522 µM | 950 nM | – | – | – | – |
| COc1cnc2c(Cc3cnc(OCc4cnc(OC)nc4)c(OC)c3)ccnc2c1 [Example 50] | 481 nM | 0.0152 µM | 312 nM | – | – | – | – |
| COc1cnc2c(Cc3ccc4nc(C5CCOCC5)cn4c3)ccnc2c1 [Example 156] | > 1000 nM | > 1 µM | > 1000 nM | – | – | – | – |
| COc1ccc(COc2ncc(Cc3ccnc4cc(N5CCC5)cnc34)cc2OC)nc1 [Example 127] | 28 nM | 0.0223 µM | 25.4 nM | – | – | – | – |
| COc1cnc2c(Cc3cnc(OCc4ccnn4C)c(OC)c3)ccnc2c1 [Example 49] | > 1000 nM | 0.0621 µM | > 1000 nM | – | – | – | – |
| COc1cnc2c(Cc3cnc(OCc4cc5n(n4)CCO[C@H]5C)c(OC)c3)ccnc2c1 (stereo in doubt) [Example 114] | – | 0.0017 µM | – | 75.7 nM | – | – | 37.9 nM |
| COc1ccc2c(Cc3ccc(OCc4ccc5cnn(C)c5c4)c(OC)c3)ccnc2c1 [Example 12] | > 1000 nM | 0.299 µM | – | – | – | – | – |
| COc1cnc2c(Cc3cnc(OCc4cc5cccnc5[nH]4)c(OC)c3)ccnc2c1 [Example 149] | 61.6 nM | 0.0039 µM | 91.2 nM | – | – | – | – |
| COc1ccc2c(Cc3ccc(OCc4ccncc4)c(OC)c3)ccnc2c1 [Example 10] | > 1000 nM | 0.118 µM | – | – | – | – | – |
| COc1cnc2c(Cc3cnc(OCc4cc5n(n4)C(C)COC5)c(OC)c3)ccnc2c1 (centres unmarked) [Example 103] | 41.7 nM | 0.0019 µM | 26 nM | – | – | – | – |
| COc1ccc(COc2ccc(Cc3ccnc4cc(OC)ccc34)cc2OC)cc1 [Example 1] | 42.6 nM | – | 42 nM | – | – | – | – |
| COc1ccc(COc2ncc(Cc3ccnc4cc(N5CC(OC)C5)cnc34)cc2OC)nc1 [Example 141] | 5.8 nM | 0.0071 µM | 3.7 nM | – | – | – | – |
| COc1cnc2c(Cc3cnc(OCc4cc5n(n4)C[C@H](C(F)(F)F)C5)c(OC)c3)ccnc2c1 [Example 110] | 109 nM | 0.0034 µM | 36.2 nM | – | – | – | – |
| COc1ccc(COc2ncc(Cc3ccnc4cncnc34)cc2OC)nc1 [Example 22, 8-((5-methoxy-6-((5-methoxypyridin-2-yl)methoxy)pyridin-3-yl)methyl)pyrido[3,2-d]pyrimidine] | > 1000 nM | 0.064 µM | – | – | – | – | – |
| COc1ccc2c(Cc3ccc(OCc4ccn(C)c(=O)c4)c(OC)c3)ccnc2c1 [Example 25] | 583 nM | 0.04 µM | – | – | – | – | – |
| COc1ccc(COc2ccc(Cc3ccnc4ccccc34)cc2OC)cc1 [Example 3] | 89.2 nM | – | – | – | – | – | – |
| COc1cnc2c(Cc3cnc(OCc4ccc(Cl)cn4)c(OC)c3)ccnc2c1 [Example 58] | 93.9 nM | – | 42.9 nM | – | – | – | – |
| COc1ccc(COc2ncc(Cc3ccnc4cc(OC)ccc34)cc2OC)nc1 [Example 13, 7-methoxy-4-((5-methoxy-6-((5-methoxypyridin-2-yl)methoxy)pyridin-3-yl)methyl)quinolone] | 176 nM | – | 151 nM | – | – | – | – |
| COc1cccc(COc2ccc(Cc3ccnc4cc(OC)ccc34)cc2OC)c1 [Example 28] | 356 nM | 0.0257 µM | – | – | – | – | – |
| COc1ccc2c(Cc3ccc(OCc4cccnc4)c(OC)c3)ccnc2c1 [Example 8] | 546 nM | – | – | – | – | – | – |
| COc1ccc2c(Cc3ccc(OCc4ccccn4)c(OC)c3)ccnc2c1 [Example 9] | 901 nM | 0.169 µM | – | – | – | – | – |
| COc1ccc2c(Cc3ccc(OCc4ccc(=O)n(C)c4)c(OC)c3)ccnc2c1 [Example 26] | 283 nM | 0.005 µM | – | – | – | – | – |
| COc1ccc(COc2ncc(Cc3ccnc4cc(N5CC6CC(C5)O6)cnc34)cc2OC)nc1 [Example 131] | 9.9 nM | – | 6.7 nM | – | – | – | – |
| COc1ccc2c(Cc3ccc(OCc4nc5ccccc5n4C)c(OC)c3)ccnc2c1 [Example 11] | > 1000 nM | 0.149 µM | – | – | – | – | – |
| COc1ccc2c(Cc3ccc(OCc4ccccc4OC)c(OC)c3)ccnc2c1 [Example 29] | 873 nM | 0.0739 µM | – | – | – | – | – |
| COc1ccc(COc2ncc(Cc3ccnc4cc(N5CCOCC5)cnc34)cc2OC)nc1 [Example 119, 4-(8-((5-methoxy-6-((5-methoxypyridin-2-yl)methoxy)pyridin-3-yl)methyl)-1,5-naphthyridin-3-yl)morpholine] | 15.9 nM | – | 8 nM | – | – | – | – |
| COc1ccc2c(Cc3ccc(OCc4cccc(C(F)(F)F)c4)c(OC)c3)ccnc2c1 [Example 27] | 207 nM | 0.117 µM | – | – | – | – | – |

From patent US20250360145A1, “CSF-1R INHIBITORS AND USES THEREOF” (Myrobalan Therapeutics, Inc., priority 2022, published 2025)
